Data reported in ChEMBL document CHEMBL1201862, “PubChem BioAssay data set” (2004).
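1) Cells in 96-well plates. 2) Compound, 48 h, 5 concentrations. 3) Linear interpolation between surrounding doses. 4) Unreached endpoint = highest concentration. Here, GI50 denotes the concentration required for 50% inhibition of growth.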 Calls of active or inactive are those of the source. No stated cut-off is given here; in the data, active = GI50 up to about 1.1 µM and inactive = higher.

Legend:
Assay in all cases: NCI anticancer screen, dose series, 48 h
786-0 = tested on: 786-0
A498 = tested on: A498
ACHN = tested on: ACHN
CAKI-1 = tested on: CAKI-1
COLO 205 = tested on: COLO 205
EKVX = tested on: EKVX
HCT-116 = tested on: HCT-116
HCT-15 = tested on: HCT-15
NCI-H226 = tested on: NCI-H226
OVCAR-3 = tested on: OVCAR-3
OVCAR-4 = tested on: OVCAR-4
OVCAR-5 = tested on: OVCAR-5
SF-295 = tested on: SF-295
SF-539 = tested on: SF-539
SK-MEL-2 = tested on: SK-MEL-2
SK-MEL-5 = tested on: SK-MEL-5
SW-620 = tested on: SW-620
TK-10 = tested on: TK-10
MDA-MB-435 = tested on: MDA-MB-435
T47D = tested on: T47D

SMILES	GI50 (786-0)	GI50 (A498)	GI50 (ACHN)	GI50 (CAKI-1)	GI50 (COLO 205)	GI50 (EKVX)	GI50 (HCT-116)	GI50 (HCT-15)	GI50 (NCI-H226)	GI50 (OVCAR-3)	GI50 (OVCAR-4)	GI50 (OVCAR-5)	GI50 (SF-295)	GI50 (SF-539)	GI50 (SK-MEL-2)	GI50 (SK-MEL-5)	GI50 (SW-620)	GI50 (TK-10)	GI50 (MDA-MB-435)	GI50 (T47D)
CNC(=O)OCc1nccc2c(C)c3[nH]c4ccc(OC)cc4c3cc12	3.78 µM (inactive)	6.7 µM (inactive)	1.61 µM (inactive)	19.1 µM (inactive)	2.94 µM (inactive)	16.7 µM (inactive)	1.95 µM (inactive)	3.03 µM	1.73 µM (inactive)	21.9 µM (inactive)	8.11 µM (inactive)	22 µM (inactive)	8.75 µM (inactive)	3.17 µM (inactive)	8.91 µM (inactive)	2.79 µM (inactive)	3.03 µM (inactive)	19.3 µM (inactive)	–	–
N#Cc1c2c(c(Cl)n3c1nc1ccccc13)CCCC2	1.77 µM (inactive)	11.4 µM (inactive)	3.56 µM (inactive)	2.76 µM (inactive)	5.12 µM (inactive)	17.8 µM (inactive)	2.75 µM (inactive)	3.21 µM	1.74 µM (inactive)	6.5 µM (inactive)	4.35 µM (inactive)	18.4 µM (inactive)	4.83 µM (inactive)	3.95 µM (inactive)	2.8 µM (inactive)	0.566 µM (active)	1.96 µM (inactive)	2.53 µM (inactive)	–	–
O=CC1=C(C(=O)OC(c2ccccc2)c2ccccc2)N2C(=O)[C@@H](NC(=O)Cc3cccs3)[C@H]2SC1	> 100 µM (inactive)	> 100 µM (inactive)	> 100 µM (inactive)	> 100 µM (inactive)	> 100 µM (inactive)	> 100 µM (inactive)	83 µM (inactive)	> 100 µM	> 100 µM (inactive)	> 100 µM (inactive)	> 100 µM (inactive)	> 100 µM (inactive)	> 100 µM (inactive)	> 100 µM (inactive)	> 100 µM (inactive)	> 100 µM (inactive)	> 100 µM (inactive)	> 100 µM (inactive)	85.5 µM (inactive)	–
O=C1c2cscc2C(=O)c2c(OCc3ccccc3)ccc(OCc3ccccc3)c21	58.2 µM (inactive)	–	> 100 µM (inactive)	> 100 µM (inactive)	> 100 µM (inactive)	> 100 µM (inactive)	91.6 µM (inactive)	–	> 100 µM (inactive)	> 100 µM (inactive)	> 100 µM (inactive)	> 100 µM (inactive)	> 100 µM (inactive)	> 100 µM (inactive)	–	> 100 µM (inactive)	> 100 µM (inactive)	> 100 µM (inactive)	> 100 µM (inactive)	> 100 µM (inactive)
COC(=O)N1C=CC2=C(C)C3Nc4ccccc4C3C(C)=C2C1 (centres undefined)	0.54 µM (active)	16.2 µM (inactive)	0.521 µM (active)	5.35 µM (inactive)	1.15 µM (inactive)	1.25 µM (inactive)	0.643 µM (active)	1.12 µM	1.61 µM (inactive)	0.923 µM (active)	1.34 µM (inactive)	2.72 µM (inactive)	1.64 µM (inactive)	4.2 µM (inactive)	1.47 µM (inactive)	3.15 µM (inactive)	1.01 µM (active)	1.66 µM (inactive)	–	–
Cc1ccccc1NC(=O)/C(=N/NC(=O)CC#N)C1C(=O)N(c2ccccc2)N=C1N (centres undefined)	> 100 µM (inactive)	> 100 µM (inactive)	60.1 µM (inactive)	> 100 µM (inactive)	> 100 µM (inactive)	> 100 µM (inactive)	> 100 µM (inactive)	> 100 µM	> 100 µM (inactive)	> 100 µM (inactive)	> 100 µM (inactive)	> 100 µM (inactive)	> 100 µM (inactive)	> 100 µM (inactive)	> 100 µM (inactive)	> 100 µM (inactive)	> 100 µM (inactive)	> 100 µM (inactive)	–	–
O=c1ccn(C2OC(CO)C(P(=O)(O)O)C2O)c(=O)[nH]1 (centres undefined)	> 100 µM (inactive)	> 100 µM (inactive)	> 100 µM (inactive)	> 100 µM (inactive)	–	> 100 µM (inactive)	> 100 µM (inactive)	> 100 µM	> 100 µM (inactive)	> 100 µM (inactive)	> 100 µM (inactive)	> 100 µM (inactive)	> 100 µM (inactive)	> 100 µM (inactive)	> 100 µM (inactive)	> 100 µM (inactive)	> 100 µM (inactive)	> 100 µM (inactive)	–	> 100 µM (inactive)
CC1(C)C(=O)N(CCCCCCN2C(=O)C(C)(C)c3ccccc32)c2ccccc21	18.2 µM (inactive)	> 100 µM (inactive)	25.6 µM (inactive)	62.4 µM (inactive)	22.1 µM (inactive)	38.1 µM (inactive)	21 µM (inactive)	34.3 µM	26.3 µM (inactive)	28 µM (inactive)	23.4 µM (inactive)	80.5 µM (inactive)	44.1 µM (inactive)	> 100 µM (inactive)	48.6 µM (inactive)	18.6 µM (inactive)	14.7 µM (inactive)	58.3 µM (inactive)	–	–
